Assay results from patent US20260097111A1, “ETHER LIPIDS FOR HYPERACTIVATION OF MAMMALIAN DENDRITIC CELLS” (priority 2022, published 2026).

Key:
[1] = test system: human moDCs and autologous memory CD4+ T cells; assay: moDC and memory CD4+ T cell coculture, cytokine secretion and viability; assay type: cell-based; conditions: for IL-1β: MCC950 10 μM or anti-IL-1β 10 μg/mL added to R848+DGP where named, FIG. 36A
Protocol: Monocyte Isolation, Storage, and Differentiation into moDC.
Memory CD4+ T Cell Isolation. The CD14− fraction of the leukapheresis product was collected and used for further isolation of memory CD4+ T cells. First, approximately 5×10^9 total nucleated cells or less of the blood product were pelleted at 200×g for 10 min. The cells were resuspended in two 50 mL conical tubes each containing 25 mL in volume. Cells were then incubated with microbeads targeting red blood cells and granulocytes at 4° C. for 15 min. Cells were loaded on equilibrated MultiMACS columns using the “Deplete” program. Columns were washed twice with separation buffer and the flow-through of peripheral blood mononuclear cells (PBMCs) were collected and counted. The Memory CD4+ T Cell Isolation Kit from Miltenyi was then used to isolate memory CD4+ T cells from the PBMCs. After following the manufacturer's protocol for antibody and microbead incubations, cells were loaded onto equilibrated MultiMACS columns using the “Deplete” program. After 2 column washes using separation buffer, the negative fraction was collected and counted. An aliquot was stained to confirm the purity of the memory CD4 T cell population. […] Vials were placed in CoolCell freezing containers and placed in a −80° C. freezer for no longer than 1 week. Frozen cells were transferred for long-term storage to the vapor phase of a liquid nitrogen freezer until use.
Treatments of Cells For Analysis of Cytokine Secretion. Human moDCs were plated at 5×10^4 cells/well in 96-well U-bottom tissue culture plates in R10++ media by adding 50 μL of cells per well. To each well, 50 μL of memory CD4 T cells at 2.5×10^6 cells/mL was added. For control conditions where only moDC or only CD4 T cells were plated, the missing cells were replaced with an equivalent volume of R10++ media.
Lyophilized R848 stocks were prepared as described above and frozen at −80° C. for storage. An aliquot of frozen R848 was thawed and further diluted to 22.8 μM in R10++ (8 μg/mL R848). A portion of diluted R848 was combined with MCC950 to reach a concentration of 80 μM MCC950. Another portion of diluted R848 was combined with anti-IL-1β blocking antibody to reach a concentration of 80 μg/mL anti-IL-1β. Cell cultures received 25 μL of these mixes depending on desired treatment. For wells not receiving R848 treatment, an equivalent volume of R10++ media was added to wells. For these three chemicals, final concentrations in the wells were 2.85 μM R848, 10 μM MCC950, and 10 μg/mL anti-IL-1β.
A4.44% solution of KP407 dissolved in sterile, distilled water was prepared at a temperature of 4° C. DGP from powder was prepared by adding KP407 solution to lipid. […] Sterile 10×PBS was added to the solution resulting in a 1×PBS concentration. […]

[2] = test system: myeloid cells in dLN and spleen; assay: Myeloid cells in dLN and spleen after SC injection (flow cytometry); assay type: in vivo, mice
Excerpt: dLN Dissection and Dissociation. […] The dLN were then transported on ice to Corner Therapeutics labs. The dLN was then processed using a Miltenyi spleen dissociation kit according to manufacturer's protocol. In brief, the dLN from each mouse was transferred into the gentleMACS C Tube containing the enzyme mix. The dLN were then dissociated using the gentleMACS Program 37C_m_SDK_1. Cell suspensions were then collected and filtered through a 30 μm Pre-Separation Filter. Cells were counted using the Moxi automated counter, then resuspended in 400 ul of FACS buffer for cell staining.
Spleen Dissection and Dissociation. […] The spleen samples were then transported on ice to Corner Therapeutics labs. Spleen samples were then processed a Miltenyi spleen dissociation kit according to manufacturer's protocol. In brief, each spleen was transferred into the gentleMACS C Tube containing the enzyme mix. The spleens were then dissociated using the gentleMACS program 37C_m_SDK_1. ACK lysis was performed for 2 min. Cell suspensions were then collected and filtered through a 30 μm Pre-Separation Filter. Cells were counted using the Moxi automated counter, then resuspended in 400 ul of FACS buffer for cell staining.
Flow Cytometry. Single cell suspension from the draining lymph or spleen were resuspended in 100 μL PBS containing Live/Dead Violet (1:1000) and incubated for 20 min at 4° C. Cells were then washed and resuspend in 100 μL FACS buffer containing Fc block (1:100) for 10 min. For myeloid cell staining, cells were then resuspended in 100 μL of antibodies detailed in Table 13-1 to identify monocytes as CD11b^+ Ly6C^+F4/80^neg MHC^neglive cells, moDCs as CD11b^+ Ly6C^+F4/80^neg MHC^+ live cells, macrophages as F4/80^+ MHC^+CD24^neg live cells, and DCs as CD11c^+MHC-II^+ F4/80^neg live cells. Counter Bright counting beads were added before the acquisition of samples.

[3] = test system: human moDCs; assay: IL-6 secretion by human moDCs; assay type: cell-based; conditions: human moDCs, 41.25 μM lipid with R848, compared with R848 + vehicle; FIG. 16

Row | Compound | production of IL-4, IL5, and IL-13 ([1]; coculture, 2 days, FIG. 38A-C) | IL-1β ([1]; coculture, 2 days) | absolute number of monocytes in the dLN ([2]; 4 hours post SC injection vs PBS, FIG. 50A) | absolute number of moDCs in the dLN ([2]; 4 hours post SC injection vs PBS, FIG. 50B) | CD69 MFI on myeloid cells in the dLN ([2]; 4 hours post SC injection vs PBS, FIG. 52A-D) | CD69 MFI on myeloid cells in the spleen ([2]; 4 hours post SC injection vs PBS, FIG. 53A-D) | CCR7 MFI on DCs in the dLN and spleen ([2]; 4 hours post SC injection, FIG. 54A-B) | monocytes in the spleen ([2]; 48 hours post SC injection vs PBS, FIG. 51A) | abundance of macrophages and cDCs in the dLN ([2]; 48 hours post SC injection, FIG. 50C-D) | IL-6 secretion [3] | IFNγ ([1]; coculture with anti-CD3, 2 days, MCC950 or anti-IL-1β added to R848+DGP where named, FIG. 37A)
1 | CCCCCCCCCCCCCCCCCCCCCCOC[C@@H](O)COP(=O)(O)O [Compound 2, 1-docosyl-sn-glycerol-3-phosphate] | not elevated compared to unstimulated conditions | minimal IL-1β was detected | did not induce an increase in the absolute number of cells in the dLN at 4 hours | did not induce an increase in the absolute number of moDCs in the dLN | did not induce CD69 upregulation on myeloid cells in the dLN | did not induce the upregulation of CD69 on myeloid cells in the spleen | did not induce the upregulation of CCR7 | decreased the levels of monocytes in the spleen | did not increase | IL-6 was secreted at similar levels | –
2 | CC(C)(O)c1coc(S(=O)(=O)NC(=O)Nc2c3c(cc4c2CCC4)CCC3)c1 [MCC950, reference compound] | – | IL-1β was significantly reduced | – | – | – | – | – | – | – | – | IFNγ production was significantly reduced
